According to patent US7592188B2, “Live cell biosensors” (The Scripps Research Institute, priority 2004, dated 2009):

How the values were obtained:
[1] = Photophysical properties of dyes in various solvents (absorbance, emission, quantum yield); format: physicochemical; set-up: ε × F / ε × Φ: unit not given here
Procedure: Analytical grade reagents were purchased from major suppliers. […] Emission and excitation spectra were obtained using a Spex Fluorolog 2 spectrofluorometer at 23° C. […] Demas et al., J. Phys. […] All operations with dyes were performed under dim light. Flasks containing dyes were wrapped with aluminum foil.

[2] = Dye photo-bleaching under tungsten lamp irradiation; format: physicochemical
Procedure: Photo-bleaching. All samples contained 1 mM dye in a final volume of 10 mL. For nitrogen and oxygen saturation the samples were bubbled with solvent-saturated gas for 30 min. A 90 W halogen tungsten lamp was employed for irradiation, with a fan used for cooling. The temperature of samples was 25±1° C. during reactions. The absorption spectrum of each sample was measured before irradiation and after every 10 h period. For the trapping experiment thioanisole (1.0 M) was added to oxygen-saturated butanol solution of dye 1b. After 60 h of irradiation the reaction mixture was analyzed by GC-MS for products formed. The products, methylphenylsulfoxide and methylphenyl sulfone, were identified by comparison with authentic samples.
Dyes used in living cells must be photostable to provide many sequential images and to obtain sufficient light from minimal amounts of exogenous labeled material. The photostability of the new dyes was characterized by exposing them to constant illumination from a tungsten lamp filtered through glass, a broad spectrum light source that provided essentially equal intensity throughout the spectral range where the dyes would be irradiated in vivo. A fan was used to prevent heating, and dye solutions were adjusted for equal maximal absorbance, kept below 1 μM to minimize the inner filter effect. […] Photo-bleaching followed first-order kinetics in all cases.

Cdc42 activation = assay: Peripheral Cdc42 activation in cells treated with cytoskeletal agents; format: cell-based
Source text: Microtubules or actin may direct Cdc42 activation to specific peripheral locations. This possibility was explored by treating cells with the microtubule-depolymerizing agents nocodazole and colchicine, or with cytochalasin D, an inhibitor of actin polymerization. […] Microtubules may therefore localize interactions between Cdc42 and guanine nucleotide exchange factors by directing vesicle trafficking or regulating events at adhesion complexes.

[3] = Water solubility and aggregation of dyes in water (absorbance spectra); conditions: in words
Source text: Labeling was accomplished only by including greater than 5% DMSO as cosolvent.

Structure (SMILES) | Abs. λmax ([1]; solvent BuOH) | Emission λmax ([1]; solvent BuOH) | Φ (quantum yield of fluorescence) ([1]; solvent BuOH) | ε (molar extinction coefficient) ([1]; solvent BuOH) | ε × F ([1]; solvent BuOH) | Abs. λmax ([1]; solvent C6H6) | Emission λmax ([1]; solvent C6H6) | Φ (quantum yield of fluorescence) ([1]; solvent C6H6) | ε (molar extinction coefficient) ([1]; solvent C6H6) | ε × F ([1]; solvent C6H6) | Abs. λmax ([1]; solvent DMF) | Emission λmax ([1]; solvent DMF) | Φ (quantum yield of fluorescence) ([1]; solvent DMF) | ε (molar extinction coefficient) ([1]; solvent DMF) | ε × F ([1]; solvent DMF) | Abs. λmax ([1]; solvent MeOH) | Emission λmax ([1]; solvent MeOH) | Φ (quantum yield of fluorescence) ([1]; solvent MeOH) | ε (molar extinction coefficient) ([1]; solvent MeOH) | ε × F ([1]; solvent MeOH) | further results
CCN1\C(=C/C=C/C=C2/C(=O)c3ccccc3S2(=O)=O)Sc2ccccc21 [dye 2a, (2Z)-2-[(2E,4E)-4-(3-Ethyl-1,3-benzothiazol-2(3H)-ylidene)but-2-enylidene]-1-benzothiophen-3(2H)-one 1,1-Dioxide] | 604 nm | 622 nm | 0.12 | (163000) | 20000 | 591 nm | 617 nm | 0.16 | (152000) | 24000 | 602 nm | 619 nm | 0.22 | (173000) | 38000 | 598 nm | 617 nm | 0.05 | (143000) | 7000 | Abs. λmax ([1]; solvent OcOH): 606 nm; Emission λmax ([1]; solvent OcOH): 623 nm; Φ (quantum yield of fluorescence) ([1]; solvent OcOH): 0.17; ε (molar extinction coefficient) ([1]; solvent OcOH): (168000); ε × F ([1]; solvent OcOH): 29000; Absolute rate constant of dye photo-bleaching, kph × 10^6 ([2]; BuOH): 5.2 s^−1; Absolute rate constant of dye photo-bleaching, kph × 10^6 ([2]; MeOH): 3.0 s^−1
CN1\C(=C/C=C/C=C2/C(=O)c3ccccc3S2(=O)=O)C(C)(C)c2ccccc21 [dye 4a, (2Z)-2-[(2E,4Z)-4-(1,3,3-Trimethyl-1,3-dihydro-2H-indol-2-ylidene)-but-2-enylidene]-1-benzothiophen-3(2H)-one 1,1-Dioxide] | 587 nm | 618 nm | 0.54 | (134000) | 72000 | 571 nm | 603 nm | 0.42 | (109000) | 46000 | 586 nm | 615 nm | 0.97 | (143000) | 140000 | 586 nm | 615 nm | 0.08 | (143000) | 12000 | Abs. λmax ([1]; solvent OcOH): 587 nm; Emission λmax ([1]; solvent OcOH): 617 nm; Φ (quantum yield of fluorescence) ([1]; solvent OcOH): 0.98; ε (molar extinction coefficient) ([1]; solvent OcOH): (125000); ε × F ([1]; solvent OcOH): 123000; Absolute rate constant of dye photo-bleaching, kph × 10^6 ([2]; BuOH): 0.65 s^−1; Absolute rate constant of dye photo-bleaching, kph × 10^6 ([2]; MeOH): 0.28 s^−1
COc1cc2c(c(OC)c1OC)-c1ccc(OC)c(=O)cc1[C@@H](NC(C)=O)CC2 [colchicine] | – | – | – | – | – | – | – | – | – | – | – | – | – | – | – | – | – | – | – | – | effect on peripheral Cdc42 activation (Cdc42 activation): markedly affected peripheral Cdc42 activation
O=C(CI)Nc1ccc2c(c1)S/C(=C/C=C/C=C1/C(=O)c3ccccc3S1(=O)=O)N2CCCS(=O)(=O)[O-].[Na+] [dye 2e, Sodium 3-[(2E)-6-[(Iodoacetyl)amino]-2-[(2E,4Z)-4-(1,1-dioxido-3-oxo-1-benzothien-2(3H)-ylidene)but-2-enylidene]-1,3-benzothiazol-3(2H)-yl]propane-1-sulfonate] | – | – | – | – | – | – | – | – | – | – | – | – | – | – | – | – | – | – | – | – | Emission λmax ([1]; reactive forms, solvent BuOH): 636 nm; absorption λmax ([1]; reactive forms, solvent BuOH): 618 nm; Φ (quantum yield of fluorescence) ([1]; reactive forms, solvent BuOH): 0.06; ε (molar extinction coefficient) ([1]; reactive forms, solvent BuOH): (160000); ε × Φ ([1]; reactive forms, solvent BuOH): 9600; Emission λmax ([1]; reactive forms, solvent H2O): 618 nm; Emission λmax ([1]; reactive forms, solvent MeOH): 628 nm; absorption λmax ([1]; reactive forms, solvent MeOH): 610 nm; Φ (quantum yield of fluorescence) ([1]; reactive forms, solvent MeOH): 0.034; ε (molar extinction coefficient) ([1]; reactive forms, solvent MeOH): (140000); ε × Φ ([1]; reactive forms, solvent MeOH): 3000
CN1C(=O)C(=C/C=C/C=C2/Sc3ccccc3N2CCCS(=O)(=O)[O-])C(=O)N(C)C1=S.[Na+] [dye 1c, Sodium 3-[(2E)-2-[(2E)-4-(1,3-Dimethyl-4,6-dioxo-2-thioxotetrahydro-pyrimidin-5(2H)-ylidene)but-2-enylidene]-1,3-benzothiazol-3(2H)-yl]propane-1-sulfonate] | – | – | – | – | – | – | – | – | – | – | – | – | – | – | – | – | – | – | – | – | water solubility [3]: significantly improved
COC(=O)Nc1nc2ccc(C(=O)c3cccs3)cc2[nH]1 [nocodazole] | – | – | – | – | – | – | – | – | – | – | – | – | – | – | – | – | – | – | – | – | effect on peripheral Cdc42 activation (Cdc42 activation): markedly affected peripheral Cdc42 activation
